The results in this text go back to US7807686B2, “2-(4-oxo-4H-quinazolin-3-yl)acetamides and their use as vasopressin V3 antagonists” (N.V. Organon, priority 2005, dated 2010).

Where a name gives a salt, the structure may show the parent alone.

The test has as its target T1, human V3 receptor (Homo sapiens, UniProt P47901).
T1 construct: expressed in transfected cells
T1 sequence (P47901 1-424): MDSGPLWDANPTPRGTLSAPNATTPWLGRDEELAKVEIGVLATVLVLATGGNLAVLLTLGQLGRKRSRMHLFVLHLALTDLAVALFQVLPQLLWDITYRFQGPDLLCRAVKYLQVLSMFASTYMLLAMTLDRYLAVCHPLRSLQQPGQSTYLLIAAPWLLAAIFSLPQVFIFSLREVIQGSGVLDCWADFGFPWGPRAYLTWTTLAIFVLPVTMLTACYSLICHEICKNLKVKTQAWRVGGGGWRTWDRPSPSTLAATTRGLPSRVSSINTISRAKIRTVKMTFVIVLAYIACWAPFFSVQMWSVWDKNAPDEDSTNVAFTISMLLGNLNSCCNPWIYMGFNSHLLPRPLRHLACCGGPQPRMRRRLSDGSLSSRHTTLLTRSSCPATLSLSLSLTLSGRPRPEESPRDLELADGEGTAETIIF
Put plainly: [3H]AVP binding to CHO cells stably expressing the human V3 receptor. As to conditions: Ki from displacement of [3H]AVP (2.5×10^-9 mol.L^-1). As for the experimental part: Chinese Hamster Ovary (CHO) cells stably expressing the human V3 receptor were incubated to equilibrium with the test compound (at a final assay concentration of 10^−11 mol.L^−1 to 10^−5 mol.L^−1) and [^3H]AVP (at a final assay concentration of 2.5×10^−9 mol.L^−1). […] After washing with ice-cold phosphate buffered saline (PBS), scintillation fluid was added and the plates counted on a Topcount NXT apparatus.
A sigmoidal dose response curve (non-linear regression, variable slope) was plotted as concentration of test compound (mol.L^−1) against percentage specific binding of [^3H]AVP and a Ki value was calculated. Each determination was carried out in triplicate and repeated on at least 3 separate occasions
(In a radioligand displacement assay an active substance lowers the binding of a labelled ligand.)

On to `CC(C)NC(=O)Cn1c(-c2cc(F)c(F)c(F)c2)nc2ccc(OCCCN3CCCCC3)cc2c1=O` [EXAMPLE 1f, N-Isopropyl-2-[4-oxo-6-(3-piperidin-1-ylpropoxy)-2-(3,4,5-trifluorophenyl)-4H-quinazolin-3-yl]acetamide], for which the Ki (as a rule, the equilibrium dissociation constant of an inhibitor or competing ligand from its target) is 10 to 100 nM.
To `COc1cccc(-c2nc3ccc(OCCCN4CCCCC4)cc3c(=O)n2CC(=O)NC(C)C)n1` [EXAMPLE 1h, N-Isopropyl-2-[2-(6-methoxypyridin-2-yl)-4-oxo-6-(3-piperidin-1-ylpropoxy)-4H-quinazolin-3-yl]acetamide] belongs below 10 nM; to `CC(C)(C)NC(=O)Cn1c(-c2cccc(Cl)c2)nc2ccc(OCCCN3CCCCC3)cc2c1=O` [EXAMPLE 2f, N-tert-Butyl-2-[2-(3-chlorophenyl)-4-oxo-6-(3-piperidin-1-ylpropoxy)-4H-quinazolin-3-yl]acetamide], below 10 nM.
Consider `COc1cc(-c2nc3ccc(OCCCN4CCC(O)CC4)cc3c(=O)n2CC(=O)NC(C)C)ccc1F` [EXAMPLE 2p, 2-{2-(4-Fluoro-3-methoxyphenyl)-6-[3-(4-hydroxypiperidin-1-yl)propoxy]-4-oxo-4H-quinazolin-3-yl}-N-isopropylacetamide], for which the Ki is below 10 nM.
For `COc1cccc(-c2nc3cc(C)c(OCCCN4CCCCC4)cc3c(=O)n2CC(=O)NC(C)C)c1` [EXAMPLE 2w, N-Isopropyl-2-[2-(3-methoxyphenyl)-7-methyl-4-oxo-6-(3-piperidin-1-ylpropoxy)-4H-quinazolin-3-yl]acetamide], the Ki is below 10 nM.
In turn, `CC(C)NC(=O)Cn1c(-c2cccc(Cl)c2)nc2ccc(OCCCN3CCCCC3)cc2c1=O` [EXAMPLE 3a, 2-[2-(3-Chlorophenyl)-4-oxo-6-(3-piperidin-1-ylpropoxy)-4H-quinazolin-3-yl]-N-isopropylacetamide hydrochloride] showed an inhibitory constant (Ki) below 10 nM.
On to `COc1cc(OC)cc(-c2nc3ccc(OCCCN4CCOCC4)cc3c(=O)n2CC(=O)NCC2CC2)c1` [EXAMPLE 3k, N-Cyclopropylmethyl-2-[2-(3,5-dimethoxyphenyl)-6-(3-morpholin-4-ylpropoxy)-4-oxo-4H-quinazolin-3-yl]acetamide], for which the inhibitory constant (Ki) was below 10 nM.
For `COc1ccc(CN(CCCN2CCCCC2)c2ccc3nc(-c4cccc(OC)c4)n(CC(=O)NC(C)C)c(=O)c3c2)cc1` [EXAMPLE 3r, N-Isopropyl-2-[6-[(4-methoxybenzyl)-(3-piperidin-1-ylpropyl)amino]-2-(3-methoxyphenyl)-4-oxo-4H-quinazolin-3-yl]acetamide], the Ki was 10 to 100 nM.
The result for `COc1cccc(-c2nc3ccc(SCCCN4CCCCC4)cc3c(=O)n2CC(=O)NC(C)C)c1` [EXAMPLE 3t, N-Isopropyl-2-[2-(3-methoxyphenyl)-4-oxo-6-(3-piperidin-1-ylpropylsulfanyl)-4H-quinazolin-3-yl]acetamide] reads 10 to 100 nM; that for `CC(C)NC(=O)Cn1c(-c2cccc(F)c2)nc2ccc(OC[C@@H](C)CN3CCOCC3)cc2c1=O` [EXAMPLE 4g, (S)-(+)-2-[2-(3-Fluorophenyl)-6-(2-methyl-3-morpholin-4-ylpropoxy)-4-oxo-4H-quinazolin-3-yl]-N-isopropylacetamide], below 10 nM.
Regarding `COc1cccc(-c2nc3ccc(OC[C@@H](C)CN4CCC4)cc3c(=O)n2CC(=O)NC(C)C)c1` [EXAMPLE 4i, (S)-(+)-2-[6-(3-Azetidin-1-yl-2-methylpropoxy)-2-(3-methoxyphenyl)-4-oxo-4H-quinazolin-3-yl]-N-isopropylacetamide], the Ki lay in the range of 10 to 100 nM.
The result for `CCCNC(=O)Cn1c(-c2cccc(OC)c2)nc2ccc(OC[C@@H](C)CN3CCCCC3)cc2c1=O` [EXAMPLE 4n, (S)-(+)-2-[2-(3-Methoxyphenyl)-6-(2-methyl-3-piperidin-1-ylpropoxy)-4-oxo-4H-quinazolin-3-yl]-N-propylacetamide] reads below 10 nM; that for `O=C(Cn1c(-c2ccccc2)nc2ccc(OCCCN3CCCCCC3)cc2c1=O)NCC1CC1` [EXAMPLE 4q, 2-[6-(3-Azepan-1-ylpropoxy)-4-oxo-2-phenyl-4H-quinazolin-3-yl]-N-cyclopropylmethylacetamide], 100 to 1000 nM.
The result for `COc1cccc(-c2nc3ccc(-c4cc(CN(C)C)ccc4F)cc3c(=O)n2CC(=O)NC(C)C)c1` [EXAMPLE 6a, 2-[6-(5-Dimethylaminomethyl-2-fluorophenyl)-2-(3-methoxyphenyl)-4-oxo-4H-quinazolin-3-yl]-N-isopropylacetamide] reads below 10 nM; that for `COc1cccc(-c2nc3ccc(-c4cccc(CN(C)C)n4)cc3c(=O)n2CC(=O)NC(C)C)c1` [EXAMPLE 6b, 2-[6-(6-Dimethylaminomethylpyridin-2-yl)-2-(3-methoxyphenyl)-4-oxo-4H-quinazolin-3-yl]-N-isopropylacetamide], 10 to 100 nM; that for `COc1cccc(-c2nc3ccc(-c4cccc(CN(C)CC(C)C)c4)cc3c(=O)n2CC(=O)NC(C)C)c1` [EXAMPLE 7p, 2-[6-{3-[(Isobutylmethylamino)methyl]phenyl}-2-(3-methoxyphenyl)-4-oxo-4H-quinazolin-3-yl]-N-isopropylacetamide], 10 to 100 nM.
The result for `COc1cccc(-c2nc3ccc(-c4cccc(CN5CCOCC5)c4)cc3c(=O)n2CC(=O)NC(C)C)c1` [EXAMPLE 7u, N-Isopropyl-2-[2-(3-methoxyphenyl)-6-(3-morpholin-4-ylmethylphenyl)-4-oxo-4H-quinazolin-3-yl]acetamide] reads below 10 nM; that for `C=CCNC(=O)Cn1c(-c2ccccc2)nc2ccc(-c3cccc(CN4CCCCC4)c3)cc2c1=O` [EXAMPLE 7x, N-Allyl-2-[4-oxo-2-phenyl-6-(3-piperidin-1-ylmethylphenyl)-4H-quinazolin-3-yl]acetamide], 100 to 1000 nM.
For `COc1cccc(-c2nc3ccc(-c4ccc(CN5CCC5)o4)cc3c(=O)n2CC(=O)NC(C)C)c1` [EXAMPLE 9a, 2-[6-(5-Azetidin-1-ylmethylfuran-2-yl)-2-(3-methoxyphenyl)-4-oxo-4H-quinazolin-3-yl]-N-isopropylacetamide], the Ki is 10 to 100 nM.
Compound `COc1cccc(-c2nc3ccc(/C=C/CCN4CCOCC4)cc3c(=O)n2CC(=O)NC(C)C)c1` [EXAMPLE 10b, N-Isopropyl-2-[2-(3-methoxyphenyl)-6-(4-morpholin-4-ylbut-1-enyl)-4-oxo-4H-quinazolin-3-yl]acetamide] showed an inhibition constant Ki of 10 to 100 nM.
The result for `COc1cccc(-c2nc3ccc(CCCCN4CCCC4)cc3c(=O)n2CC(=O)NC(C)C)c1` [EXAMPLE 11b, N-Isopropyl-2-[2-(3-methoxyphenyl)-4-oxo-6-(4-pyrrolidin-1-ylbutyl)-4H-quinazolin-3-yl]acetamide] reads 10 to 100 nM.
As for `COc1cccc(-c2nc3ccc(OCCC4CCCCN4C)cc3c(=O)n2CC(=O)NC(C)C)c1` (stereo not drawn) [EXAMPLE 12a, N-Isopropyl-2-[2-(3-methoxyphenyl)-6-[2-(1-methylpiperidin-2-yl)ethoxy]-4-oxo-4H-quinazolin-3-yl]acetamide], the Ki lay in the range of 100 to 1000 nM.
The result for `COc1cccc(-c2nc3ccc(NCCCN4CCCCC4)cc3c(=O)n2CC(=O)NC(C)C)c1` [EXAMPLE 13a, N-Isopropyl-2-[2-(3-methoxyphenyl)-4-oxo-6-(3-piperidin-1-ylpropylamino)-4H-quinazolin-3-yl]acetamide] reads 100 to 1000 nM; that for `COc1cccc(-c2nc3ccc(OCC4CCCN(C)C4)cc3c(=O)n2CC(=O)NC(C)C)c1` (stereo not drawn) [EXAMPLE 14a, N-Isopropyl-2-[2-(3-methoxyphenyl)-6-(1-methylpiperidin-3-ylmethoxy)-4-oxo-4H-quinazolin-3-yl]acetamide], 100 to 1000 nM.
